The text below walks through data of patent US8133871B2, “Dihydropseudoerythromycin derivatives” (The Kitasato Institute, priority 2005, dated 2012).

Assay type in all cases: cell-based
In one experiment the test system is K. pneumoniae NCTN9632. Put plainly: antibacterial activity, MIC (NCCLS method). The conditions noted are these: Klebsiella pneumoniae. How it is done: (§1) The antibacterial activity of the compound of the present invention and erythromycin were measured according to the antibacterial sensitivity measurement method of the US National Committee for Clinical Laboratory Standards (NCCLS). The values of minimum inhibitory concentration (MIC) (μg/ml) of each compound against bacteria are shown therein.

A further experiment concerns S. aureus 8325 (pEP2104). Put plainly: antibacterial activity, MIC (NCCLS method). The conditions noted are these: Staphylococcus aureus. How it is done:
as §1

In another experiment the test system is S. aureus Smith. Briefly: antibacterial activity, MIC (NCCLS method). The note with it: Staphylococcus aureus. How it is done:
as §1

The next experiment concerns A. calcoaceticus IFO2552. Put plainly: antibacterial activity, MIC (NCCLS method). The conditions noted are these: Acinetobacter calcoaceticus. How it is done: as §1
Another experiment deals with E. aerogen NCTC10006. Briefly: antibacterial activity, MIC (NCCLS method). The protocol:
as §1

The test system of the next experiment is S. epidermidis IFO12648. Briefly: antibacterial activity, MIC (NCCLS method). The conditions noted are these: Staphylococcus epidermidis. How it is done:
as §1

The subject of the next experiment is S. marcescens IFO12648. Put plainly: antibacterial activity, MIC (NCCLS method). The conditions noted are these: Serratia marcescens. How it is done: as §1
The subject of the next experiment is E. faecalis ATCC21212. Put plainly: antibacterial activity, MIC (NCCLS method). The conditions noted are these: Enterococcus faecalis. The protocol: as §1
A further experiment concerns E. coli NIHJ JC-2. Briefly: antibacterial activity, MIC (NCCLS method). The note with it: Escherichia coli, NIHJJC2. How it is done:
as §1

The next experiment concerns M. luteus ATCC9341. Briefly: antibacterial activity, MIC (NCCLS method). The note with it: Micrococcus luteus. The protocol:
as §1

The subject of another experiment is S. aureus FDA209P. Briefly: antibacterial activity, MIC (NCCLS method). The note with it: Staphylococcus aureus. How it is done: as §1
The test system of the next experiment is THP-1 cells. Briefly: THP-1 differentiation induction-promoting activity. The conditions noted are these: Homo sapiens, THP-1; lowest concentration necessary to show 50% activity relative to the activity value of erythromycin A at 100 μM; PMA 1-2 μM, 72-96 hr. The protocol: As one index of the anti-inflammatory action of the compound of the present invention, the differentiation induction-promoting activity of THP-1 cell was measured. The measurement was performed as shown below.
THP-1 cells (ATCC No. TIB-202) were adjusted to a concentration of 2×10^5 cells/ml with a medium (RPMI 1640), PMA was added thereto to a final concentration of 1-2 μM, and the mixture was dispensed to each well of a 96 well plate by 100 μl. A solution (100 μl) containing a test substance was adjusted to an appropriate concentration with the medium and added to each well. The mixture was stirred by gently shaking the plate, and incubated under 37° C., 5% CO2 conditions for 72-96 hr. Each well was washed with PBS, a medium containing the viable cell measurement reagent SF (Nacalai Tesque) was added at 100 μl/well and the mixture was incubated under the conditions of 37° C., 5% CO2 for 3-5 hr. The absorbance was measured with a plate reader.
In the Table, the activity value is the lowest concentration necessary for the test compound to show a 50% activity value relative to the activity value of erythromycin A at 100 μM in this experiment.
THP-1 differentiation induction-promoting activity: The lowest concentration necessary for each compound to show 50% activity relative to the activity value of erythromycin A at 100 μM.

Where [1] appears, read: M. luteus ATCC9341 2002.1.31, read-out: MIC.
Setting [2] is: K. pneumoniae NCTN9632 2002.1.31, read-out: MIC.
The mark [3] stands for this setting: S. aureus Smith 2002.1.31, read-out: MIC.
Where [4] appears, read: A. calcoaceticus IFO2552 2002.2.1, read-out: MIC.
Where [5] appears, read: S. epidermidis IFO12648 2002.1.31, read-out: MIC.
The mark [6] stands for this setting: E. faecalis ATCC21212 2002.1.31, read-out: MIC.
The mark [7] stands for this setting: E. coli NIHJ JC-2 2002.1.31, read-out: MIC.
[8] abbreviates: S. aureus FDA209P 2002.1.31, read-out: MIC.

Converted amounts (≈) assume the structure as drawn. Like-named read-outs stand apart in the source and are kept apart here.

For orientation: MIC means the smallest concentration in the dilution series that meets the test's criterion for growth inhibition. The term minimal effective concentration denotes the smallest amount tested that counted as effective. A low value points to an effect from little substance. As for `CC[C@@H](O)[C@@](C)(O)[C@@H]1OC(=O)[C@H](C)[C@@H](O[C@H]2CC(C)(OC)[C@@H](O)C(C)O2)[C@H](C)[C@@H](O[C@@H]2OC(C)CC(N(C)C)C2O)[C@@]2(C)CC(C)C(O2)[C@@H]1C` (some centres unmarked) [EM900, 9-dihydro-pseudoerythromycin A 6,9-epoxide], the MIC in the experiment with K. pneumoniae NCTN9632 (NCTN9632), with S. aureus 8325 (pEP2104), against S. aureus Smith, with A. calcoaceticus IFO2552 (IFO2552), in the experiment with E. aerogen NCTC10006 and with S. epidermidis IFO12648 (IFO12648) was above 128 µg/mL each time. Further, the MIC is above 128 µg/mL against S. marcescens IFO12648 (IFO12648); above 128 µg/mL in the experiment with E. faecalis ATCC21212 (ATCC21212); above 128 µg/mL with E. coli NIHJ JC-2; 128 µg/mL (≈ 178 µM) with M. luteus ATCC9341 (setting [1]); above 128 µg/mL with S. aureus FDA209P (FDA209P). In the experiment with THP-1 cells, the minimal effective concentration came out at 30 µM.

For `CC[C@@H](O)[C@@](C)(O)[C@@H]1OC(=O)[C@H](C)[C@@H](O[C@H]2CC(C)(OC)[C@@H](O)C(C)O2)[C@H](C)[C@@H](O[C@@H]2OC(C)CC(NC)C2O)[C@@]2(C)CC(C)C(O2)[C@@H]1C` (some centres unmarked) [EM901, de(3′-N-methyl)-9-dihydro-pseudoerythromycin A 6,9-epoxide], the MIC against K. pneumoniae NCTN9632 (NCTN9632), with S. aureus 8325 (pEP2104), with S. aureus Smith, with A. calcoaceticus IFO2552 (IFO2552), against E. aerogen NCTC10006 and against S. epidermidis IFO12648 (IFO12648) was above 128 µg/mL throughout. In addition, the MIC against S. marcescens IFO12648 (IFO12648), in the experiment with E. faecalis ATCC21212 (ATCC21212), in the experiment on E. coli NIHJ JC-2, with M. luteus ATCC9341 (ATCC9341) and against S. aureus FDA209P (FDA209P) was above 128 µg/mL throughout. Besides, in the experiment on THP-1 cells, the minimal effective concentration was 30 µM.

Turning to `CC[C@H]1OC(=O)O[C@@]1(C)[C@@H]1OC(=O)[C@H](C)C(=O)[C@H](C)[C@@H](O[C@@H]2OC(C)CC(N(C)Cc3ccc(Cl)cc3)C2O)[C@]2(C)CC(C)C(O2)[C@@H]1C` (some centres unmarked) [EM939, de(3′-N-methyl)-3′-N-(p-chlorobenzyl)-de(3-O-cladinosyl)-9-dihydro-3-keto-pseudoerythromycin A 6,9-epoxide 12,13-carbonate], the MIC with K. pneumoniae NCTN9632 (setting [2]) is above 64 µg/mL; with S. aureus 8325 (pEP2104) it was above 64 µg/mL; in the experiment with S. aureus Smith (setting [3]), above 64 µg/mL; in the experiment on A. calcoaceticus IFO2552 (setting [4]), above 64 µg/mL; in the experiment with E. aerogen NCTC10006 (E. aerogen NCTC10006 2002.2.1, read-out: MIC) it was above 64 µg/mL; in the experiment on S. epidermidis IFO12648 (setting [5]) it was above 64 µg/mL. Besides, the minimal inhibitory concentration (MIC) in the experiment on S. marcescens IFO12648 (S. marcescens IFO12648 2002.2.1, read-out: MIC) is above 64 µg/mL; in the experiment with E. faecalis ATCC21212 (setting [6]), above 64 µg/mL; with E. coli NIHJ JC-2 (setting [7]), above 64 µg/mL; in the experiment on M. luteus ATCC9341 (setting [1]), above 64 µg/mL; in the experiment with S. aureus FDA209P (setting [8]), above 64 µg/mL. This compound had a minimal effective concentration in the experiment with THP-1 cells of 3 µM.

Turning to `CC[C@H]1OC(=O)[C@H](C)[C@@H](O[C@H]2C[C@@](C)(OC)[C@@H](O)[C@H](C)O2)[C@H](C)[C@@H](O[C@@H]2O[C@H](C)C[C@H](N(C)C)[C@H]2O)[C@](C)(O)C[C@@H](C)C(=O)[C@H](C)[C@@H](O)[C@]1(C)O` [erythromycin], the MIC in the experiment with K. pneumoniae NCTN9632 (setting [2]) is 32 µg/mL (≈ 43.6 µM); against S. aureus 8325 (pEP2104), 64 µg/mL (≈ 87.2 µM); with S. aureus Smith (setting [3]), at most 0.5 µg/mL; with A. calcoaceticus IFO2552 (setting [4]) it was 4 µg/mL (≈ 5.45 µM); in the experiment with E. aerogen NCTC10006 it was 128 µg/mL (≈ 174 µM); with S. epidermidis IFO12648 (setting [5]) it was at most 0.5 µg/mL. The MIC was 128 µg/mL (≈ 174 µM) in the experiment on S. marcescens IFO12648 (IFO12648); 1 µg/mL (≈ 1.36 µM) in the experiment with E. faecalis ATCC21212 (setting [6]); 64 µg/mL (≈ 87.2 µM) in the experiment with E. coli NIHJ JC-2 (setting [7]); at most 0.5 µg/mL with M. luteus ATCC9341 (setting [1]); at most 0.5 µg/mL in the experiment on S. aureus FDA209P (setting [8]).
